Assay results taken from patent US11274131B2, “IgM-mediated receptor clustering and cell modulation” (MAYO FOUNDATION FOR MEDICAL EDUCATION AND RESEARCH, priority 2007, dated 2022).

Assays:
human DC = experiment: Cap formation / FRET on human DC; assay type: cell-based
Protocol: (§1) DC of murine origin were stained with anti-Class II-FITC (MF/114.15.2), and either anti-CD80-PE (16.10A1)/CD86-PE (GL-1), or anti-CD11c-PE (N418). DC of human origin were stained with anti-Class II-FITC (LN3) and anti-CD80-PE (2D10.4)/CD86-PE (IT2.2). All incubations were carried out for 15 minutes at 37° C. The cells were subsequently stimulated with 10 μg/ml of control (sHIgM39) or B7-DC XAb, and were observed every 5 minutes using time lapse confocal imaging at 40.times magnification with a LSM510 Laser scanning confocal microscope having a 37° C. stage (Carl-Zeiss Inc, Oberkochen, Germany). Jurkat cells were pre stained with anti-human CD28-FITC (CD28.2) for 15 minutes, followed by addition of 10 μg/ml of MTAb control antibody sHIgM39, MTAb sHIgM22, or anti-K^b IgM (28-13-3), and were and analyzed in the same manner as the DC.
The flow cytometry approach for FRET was used as a way of quantifying molecular aggregation on the cell surface and was carried out as described previously (Block et al. (2001) J. Immunol. 167:821-826). Briefly, DC of murine origin were stained with anti-Class II APC (M5/114.15.2) and anti-CD80-PE (16.10A1)/CD86-PE(GL-1) for 15 minutes to visualize FRET between these molecules. […] Data collected as log10 fluorescence were analyzed using CELLQUEST™ (BD Biosciences). […]

B16 melanoma cells = details: mice injected intravenously with antibody directly or DCs pre-treated with antibody and tumor antigen; cited from earlier work
bone-marrow derived DCs = experiment: FRET on DCs expressing Kb-peptide constructs; assay type: cell-based, mouse
Protocol: Kb, Kb-12p9A, Kb-22p3, and Kb-22p12p were placed in a VSV-G pseudotyped pBabe Puro retroviral vector, a vector based on the Maloney Murine Retrovirus. […] Retrovirus was produced by transient […] of 293T cells, and supernatant was concentrated 100:1 by ultracentrifugation on a 10% sucrose cushion. The retrovirus was titered with a colony forming unit assay of HT-1080 cells transduced with limiting dilutions of the supernatant concentrate, followed by selection with 2 ug/mL puromycin. To make DCs, bone marrow was harvested from Balb/c, C57BL6 mice or B7DC−/− mice on a C57BL6 background.
Bone marrow was placed in RPMI+10% Cosmic Calf Serum with 1 ng/mL IL-4 and 10 ng/mL GM-CSF, and plated at 10^6/mL in 24 well plates. On day 2 post-plating, media was aspirated; fresh media was added with 0.5 MOI retrovirus and 4 ug/mL polybrene. Using this system, the peptide constructs were expressed in cultured DCs (FIG. 13).
To directly compare the activity of the MTabs hIgM12 and hIgM22, a series of well-defined biological outputs of treatment of wild type DCs with hIgM12 was used. FRET was used as an output for formation of the multimolecular cap seen upon binding of hIgM12 to wild type DCs. The emission of phycoerythrin (PE) was used to excite APC, which normally emits in the FL4 channel but under FRET emits in the FL3 channel. Experiments were conducted to test FRET of CD40-PE to Class II APC, and CD80-PE to Class II APC (FIG. 14). Either wild type C57BL6 DCs or B7DC−/− DCs transduced with either B7DC or the Kb constructs were used. DCs were stained with the fluorochrome-labeled antibodies, and then treated for 15 minutes at 37° C. with 10 μg/mL of either hIgM12, hIgM22, or 28-13-3.

B7-DC (PD-L2) = details: cited from earlier work
mouse DC = experiment: Cap formation / FRET on mouse DC; assay type: cell-based
Protocol: as §1
The flow cytometry approach for FRET was used as a way of quantifying molecular aggregation on the cell surface and was carried out as described previously (Block et al. (2001) J. Immunol. 167:821-826). Briefly, DC of murine origin were stained with anti-Class II APC (M5/114.15.2) and anti-CD80-PE (16.10A1)/CD86-PE(GL-1) for 15 minutes to visualize FRET between these molecules. Monitoring for FRET induced by interaction between TREM-2 and Class-II molecules was achieved by incubating the cells with the abovementioned anti-Class-II antibody and anti-TREM-2-PE (237920). DC of human origin were stained for 15 minutes with APC-anti class II (LN3) and anti-CD80-PE (2D10.4)/CD86-PE (IT2.2). In experiments involving blocking of B7-DC, both fluorophore labeled antibodies and purified anti-mouse B7-DC (TY-25) or purified anti-human B7-DC (MIH18) IgG monoclonal antibody was added at 10 μg/ml for 15 minutes. Jurkat cells were stained with anti-human Class I-PE (G46-2.6) or anti-human CD4 (RPA-T4) and anti-human CD28-APC (CD28.2) for 15 minutes. Cells were stimulated with control antibody or B7-DC XAb or purified anti-mouse class II IgM (25-9-3) (experiments involving DC) or sHIgM22 (experiments involving Jurkat cells) and aliquots from different groups were taken at different time points. After 15 minutes of incubation, the cells were washed and fixed in 2% paraformaldehyde prior to analysis by FACS using a FACSCALIBER™ (BD Biosciences, Franklin Lakes, N.J.). Data collected as log10 fluorescence were analyzed using CELLQUEST™ (BD Biosciences). The FRET signal was visualized in FL3 channel (650-670 nm LP).

B7-DC XAb: human monoclonal IgM from a Waldenstrom's macroglobulinemia patient that binds and cross-links B7-DC on DC
reorganization of tagged class II, CD80, CD86 into a capped cluster (human DC): reorganized into a distinctly capped cluster | FRET among class II, CD80 and CD86 (human DC; within ten minutes): strong FRET signal | protection against B16 melanoma challenge (B16 melanoma cells): protected against challenge by B16 melanoma cells | FRET response (bone-marrow derived DCs; B7DC−/− DCs with restored B7DC expression): responded as well | FRET response (bone-marrow derived DCs; B7DC−/− Kb-12p9A DCs): responded | FRET response (bone-marrow derived DCs; B7DC−/− Kb-22p12p DCs): responded | FRET response (CD40-PE or CD80-PE to Class II APC) (bone-marrow derived DCs; wild type DCs, 10 μg/mL, 15 minutes): responded | binding to B7-DC on the surface of DC (B7-DC (PD-L2)): binds | co-capping of CD80 and CD86 or CD11c with class II molecules (mouse DC; DC from CD80/CD86 double knock out and MHC class II knock out mice): still occurred | reorganization of tagged class II, CD80, CD86 into a capped cluster (mouse DC; mouse DC): reorganized into a distinctly capped cluster | FRET among class II, CD80 and CD86 (mouse DC; mouse DC, within ten minutes): strong FRET signal | time to association of TREM-2 with class II molecules by FRET (mouse DC; mouse DC, increased by 15 minutes): ≤ 5 min
